Values quoted from earlier work, collected in patent US11154558B2, “Prevention of atherosclerotic events with direct factor Xa inhibitors” (Adams Pharmaceuticals LLC, priority 2016, dated 2021).
Like-named read-outs stand apart in the source and are kept apart here.

What was measured:
hERG = hERG (Homo sapiens, UniProt Q12809)
[1] = usual dose about 15 mg to about 20 mg per day
[2] = test system: atherosclerotic plaques in ApoE^−/−mice
[3] = human, in vivo
[4] = human, in vivo; remark: listed apart in the source
[5] = ApoE−/− mice treated with rivaroxaban

hERG, sequence (Q12809 whole entry): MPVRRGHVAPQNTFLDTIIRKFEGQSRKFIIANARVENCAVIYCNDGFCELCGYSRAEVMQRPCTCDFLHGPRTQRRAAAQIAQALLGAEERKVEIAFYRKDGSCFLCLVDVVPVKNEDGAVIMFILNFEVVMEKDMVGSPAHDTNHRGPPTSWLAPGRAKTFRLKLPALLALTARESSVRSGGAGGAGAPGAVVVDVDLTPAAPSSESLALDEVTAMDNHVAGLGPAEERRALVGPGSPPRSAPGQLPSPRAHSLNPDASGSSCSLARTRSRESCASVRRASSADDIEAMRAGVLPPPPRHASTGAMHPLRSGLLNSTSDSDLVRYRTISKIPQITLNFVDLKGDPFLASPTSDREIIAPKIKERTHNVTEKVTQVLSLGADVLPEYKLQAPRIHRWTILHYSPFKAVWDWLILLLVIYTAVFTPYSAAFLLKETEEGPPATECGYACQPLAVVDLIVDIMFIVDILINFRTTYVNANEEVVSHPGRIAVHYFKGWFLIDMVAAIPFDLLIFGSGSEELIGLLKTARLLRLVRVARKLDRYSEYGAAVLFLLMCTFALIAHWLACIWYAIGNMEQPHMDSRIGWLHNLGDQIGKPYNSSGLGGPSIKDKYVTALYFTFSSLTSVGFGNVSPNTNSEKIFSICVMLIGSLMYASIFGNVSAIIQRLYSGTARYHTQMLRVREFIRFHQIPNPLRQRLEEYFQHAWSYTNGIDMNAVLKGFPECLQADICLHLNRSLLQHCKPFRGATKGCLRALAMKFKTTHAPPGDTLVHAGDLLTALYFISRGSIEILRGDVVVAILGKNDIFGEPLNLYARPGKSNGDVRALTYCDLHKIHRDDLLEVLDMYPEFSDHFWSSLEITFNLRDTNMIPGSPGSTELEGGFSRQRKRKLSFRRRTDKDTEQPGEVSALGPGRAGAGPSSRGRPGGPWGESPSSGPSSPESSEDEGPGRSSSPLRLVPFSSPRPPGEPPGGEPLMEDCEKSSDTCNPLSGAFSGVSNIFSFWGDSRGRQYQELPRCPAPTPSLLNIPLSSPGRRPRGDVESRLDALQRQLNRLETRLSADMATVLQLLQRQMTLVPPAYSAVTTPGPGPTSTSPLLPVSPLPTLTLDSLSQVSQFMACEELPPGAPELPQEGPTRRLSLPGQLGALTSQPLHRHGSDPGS

| risk of a major bleeding event ([1]; one reported study) [%] | risk of a major bleeding event ([1]; second study) [%] | patients affected by bleeding (major bleeding events) [4] [%] | Compound | hERG affinity (hERG) | direct effect on platelet aggregation (platelet aggregation) | accumulation of macrophages in plaques [2, 5] | atherosclerotic plaque stability and plaque progression [2, 5] | collagen contents in atherosclerotic plaques [2, 5] | expression of matrix metallopeptidase-9 (MMP-9) [2, 5] | lipid deposition in plaques [2, 5] | plasma levels of FXa or thrombin antithrombin ([2]; ApoE−/− mice, administration of rivaroxaban) | prevalence of major bleeding versus placebo [3] |
| --- | --- | --- | --- | --- | --- | --- | --- | --- | --- | --- | --- | --- |
| – | – | – | COc1ccc(NC(=O)c2ccc(C(=N)N(C)C)cc2)c(C(=O)Nc2ccc(Cl)cn2)c1 [Betrixaban] | low hERG affinity | – | – | – | – | – | – | – | – |
| 4.3 | 1.7 | – | O=C(NC[C@H]1CN(c2ccc(N3CCOCC3=O)cc2)C(=O)O1)c1ccc(Cl)s1 [rivaroxaban] | – | no direct effect on platelet aggregation | reduced accumulation | stabilized atherosclerotic plaques and attenuated plaque progression | increased collagen contents | decreased expression | decreased lipid deposition | did not change | – |
| – | – | 1.7 | COc1ccc(-n2nc(C(N)=O)c3c2C(=O)N(c2ccc(N4CCCCC4=O)cc2)CC3)cc1 [apixaban] | – | no direct effect on platelet aggregation | – | – | – | – | – | – | no increased prevalence of major bleeding |
